{"source": "patent US8030004B2", "about": "“Cell free screening assay and methods of use” (Oregon Health & Science University, priority 2005, dated 2011)", "format_in_all_cases": "biochemical", "key": {"xFANCA, xFANCF, xFANCD2": {"system": "xFANCA, xFANCF, xFANCD2", "test": "Chromatin binding of xFA proteins in replicating S-phase Xenopus egg extracts with sperm chromatin", "conditions": "for chromatin binding of xFA proteins (xFANCA, xFANCF, xFANCD2): replicating S-phase extracts with sperm chromatin", "protocol": "Following replication (60 minutes), chromatin was re-isolated and the same blot was assayed in series for the presence of the xFA proteins indicated. A non-specific band is indicated (asterisk) as a loading control. […] A replication assay was performed to monitor incorporation of α-^32P-GTP during one round of replication in extracts treated as indicated. Total amounts of replication products at 60 minutes following addition of sperm chromatin to non-treated or treated extracts were analyzed by agarose gel electrophoresis and exposure to X-ray film. Band density percentages were determined using a BioRad Molecular PhosphorImager Fx (Kodak screens, Quantity-1 software). […] 1000 sperm pronuclei/ul were added to replicating extracts containing different concentrations of MMC (lanes 3-9). Extracts were otherwise untreated or contained caffeine (lanes 6+7) or a neutralizing anti-xATR antibody (lanes 8+9). MMC-concentrations: 150 μM (lanes 3, 6, 8), 50 μM (lanes 4, 7, 9), or 5 μM (lane 5). […] Sperm chromatin was added to S-phase egg extracts. Xenopus egg extracts were either untreated (−) or aphidicolin was added (+) at the indicated time points following addition of sperm DNA: 0 minutes, pre-nuclear membrane formation; 30 minutes, beginning of replication; 60 minutes, mid-replication; 90 minutes late/post-replication; and 120 minutes, post replication. All chromatin fractions were re-isolated at 135 minutes following addition of sperm DNA, analyzed by SDS-PAGE and immunoblotted as indicated. […] Xenopus egg extracts were treated with beads coupled to preimmune serum (lanes 2, 3, and 5) or beads coupled to anti-xATRIP serum (lanes 1, 4, and 6). Sperm chromatin was added to preimmune or xATRIP depleted extracts and allowed to replicate. Xenopus egg extracts were either untreated or supplemented with aphidicolin (added at 50 minutes following addition of sperm DNA). Chromatin fractions were re-isolated at 70 minutes and assayed for the presence of xFANCD2, xFANCA, xATRIP and xORC-2 by immunoblotting. […]"}, "DNA replication": {"system": "DNA replication", "test": "DNA replication assay of sperm chromatin in S-phase Xenopus egg extracts", "protocol": "Following replication (60 minutes), chromatin was re-isolated and the same blot was assayed in series for the presence of the xFA proteins indicated. A non-specific band is indicated (asterisk) as a loading control. […] A replication assay was performed to monitor incorporation of α-^32P-GTP during one round of replication in extracts treated as indicated. Total amounts of replication products at 60 minutes following addition of sperm chromatin to non-treated or treated extracts were analyzed by agarose gel electrophoresis and exposure to X-ray film. Band density percentages were determined using a BioRad Molecular PhosphorImager Fx (Kodak screens, Quantity-1 software). […] 1000 sperm pronuclei/ul were added to replicating extracts containing different concentrations of MMC (lanes 3-9). Extracts were otherwise untreated or contained caffeine (lanes 6+7) or a neutralizing anti-xATR antibody (lanes 8+9). MMC-concentrations: 150 μM (lanes 3, 6, 8), 50 μM (lanes 4, 7, 9), or 5 μM (lane 5). […] Sperm chromatin was added to S-phase egg extracts. Xenopus egg extracts were either untreated (−) or aphidicolin was added (+) at the indicated time points following addition of sperm DNA: 0 minutes, pre-nuclear membrane formation; 30 minutes, beginning of replication; 60 minutes, mid-replication; 90 minutes late/post-replication; and 120 minutes, post replication. All chromatin fractions were re-isolated at 135 minutes following addition of sperm DNA, analyzed by SDS-PAGE and immunoblotted as indicated. […] Xenopus egg extracts were treated with beads coupled to preimmune serum (lanes 2, 3, and 5) or beads coupled to anti-xATRIP serum (lanes 1, 4, and 6). Sperm chromatin was added to preimmune or xATRIP depleted extracts and allowed to replicate. Xenopus egg extracts were either untreated or supplemented with aphidicolin (added at 50 minutes following addition of sperm DNA). Chromatin fractions were re-isolated at 70 minutes and assayed for the presence of xFANCD2, xFANCA, xATRIP and xORC-2 by immunoblotting. […] Xenopus egg extracts were treated with beads coupled to preimmune serum (lanes 1 and 3) or beads coupled to anti-xFANCA serum (lanes 2 and 4). Sperm chromatin was added to preimmune or xFANCA depleted extracts and allowed to replicate. Xenopus egg extracts were either untreated or supplemented with aphidicolin (added at 50 minutes following addition of sperm DNA). Chromatin fractions were re-isolated at 70 minutes and assayed for the presence of xFANCA, xATRIP and xORC-2 by immunoblotting.\nPreparation of Xenopus egg extracts: Extracts were prepared from Xenopus eggs according to the method of Murray (Murray, Methods Cell Biol. 36:581-605, 1991). In brief, eggs were de-jellied in 2% cysteine, pH 7.8, washed three times in XB buffer (10 mM KCl, 1 mM MgCl2, […] CaCl2, 10 mM HEPES, 5 mM ethylene glycol tetraacetic acid (EGTA), 1.75% w/v sucrose, pH 7.8) and washed three times in CSF-XB buffer (5 mM EGTA, 2 mM MgCl2). Eggs were crushed by low speed centrifugation (10,000 g, 10 minutes) and the cytoplasmic fraction was cleared by centrifugation (16,000 g, 20 minutes) after the addition of energy mix (15 mM creatine phosphate, 2 mM ATP, 2 mM MgCl2), cytochalasin B (10 μg/ml), cycloheximide (100 μg/ml), and PEFABLOC™ (4-(2-aminoethyl)benzenesulfonylfluoride) (100 μg/ml). In some of the examples described herein, the extracts were released from M to S phase by the addition of CaCl2 to a final concentration of 0.4 mM. In some examples, the released extracts were incubated for 20 minutes at 23° C. Where indicated, mitomycin C (5-150 μM) and caffeine (4 mM), Tautomycin (3 uM), etoposide (30 or 60 uM), and ICRF-193 (150 and 300 uM) were added to S-phase extracts immediately prior to the addition of DNA substrates or sperm chromatin and incubated for the time indicated; aphidicolin (50 ng/1 μl), was added at the time points indicated."}, "xFANCM": {"system": "xFANCM", "test": "Xenopus egg cell free extract: xFANCM mobility shift (phosphorylation) upon addition of DNA, immunoblot", "conditions": "natural product screen membranes reprobed with xFANCM antibody (FIG. 7B)", "protocol": "10 ul Xenopus egg extracts was combined with 0.5 ul compound (10 mM) or curcumin (control, 23 uM) then 0.5 ul plasmid DNA (pBluescript, 3.4 ug/ul) was added. The sample was incubated for 45 min at room temperature, then 60 ul of 1×SDS loading buffer. After incubation at 95° C. for 10 min, samples were resolved onto a NUPAGE™ 3-8% tris-acetate gradient gel (Invitrogen) and transferred onto a PVDF membrane (Immobilon P, Millipore).\nOf the 235 compounds tested 7 (NP-A3, NP-A7, NP-D8, NP-E3, NP-F2, NP-F8, NP-H8) were positive for modulation of xFANCD2 activation (see FIG. 14). Membranes initially probed with xFANCD2 antibody were reprobed with xFANCM antibody. […] Thus xFANCM can be used as an indicator of Fanconi anemia pathway activation."}, "xMre11": {"system": "xMre11", "test": "Induction of xMre11-PPP by plasmid DNA in Xenopus egg cell free extracts, immunoblot", "protocol": "FIG. 13A is a digital image of an immunoblot showing Xenopus egg cell free extracts that were incubated with 160 ng/ul circular plasmid dsDNA for 30 min in the presence or absence of the replication initiation inhibitor geminin. Efficiency of replication inhibition was measured by performing a parallel replication assay using an aliquot of the geminin-treated extract (smaller panel in figure FIG. 13A). FIG. 13B is a digital image of an immunoblot showing that non-activated, M-phase egg extracts or CaCl2-activated, S-phase egg extracts were incubated with 160 ng/ul circular plasmid dsDNA. Extract aliquots (1 ul) were taken at the indicated time points and analyzed for xFANCD2 and xMre11. […] FIG. 13C is a digital image of an immunoblot showing Xenopus egg cell free extracts that were incubated with 160 ng/ul circular plasmid dsDNA for 30 min in the presence or absence of the checkpoint kinase inhibitor caffeine. Where indicated, extracts were supplemented with the phosphatase inhibitor, tautomycin, to stabilize xMre11-PPP. Following incubation, 1 ul of extract was analyzed for xFANCD2 and xMre11 by immunoblot. DNA-free extract was used as a size control for xFANCD2-S and xMre11 (lane 1). […]"}, "xFANCD2": {"system": "xFANCD2", "test": "Induction of xFANCD2-L by circular plasmid dsDNA in Xenopus egg cell free extracts, immunoblot", "conditions": "for induction of xFANCD2-L in the presence of circular plasmid DNA: 200 ng/ul circular plasmid dsDNA, etoposide 30 or 60 uM, ICRF-193 150 or 300 uM", "protocol": "FIG. 13A is a digital image of an immunoblot showing Xenopus egg cell free extracts that were incubated with 160 ng/ul circular plasmid dsDNA for 30 min in the presence or absence of the replication initiation inhibitor geminin. Efficiency of replication inhibition was measured by performing a parallel replication assay using an aliquot of the geminin-treated extract (smaller panel in figure FIG. 13A). FIG. 13B is a digital image of an immunoblot showing that non-activated, M-phase egg extracts or CaCl2-activated, S-phase egg extracts were incubated with 160 ng/ul circular plasmid dsDNA. Extract aliquots (1 ul) were taken at the indicated time points and analyzed for xFANCD2 and xMre11. […] FIG. 13C is a digital image of an immunoblot showing Xenopus egg cell free extracts that were incubated with 160 ng/ul circular plasmid dsDNA for 30 min in the presence or absence of the checkpoint kinase inhibitor caffeine. Where indicated, extracts were supplemented with the phosphatase inhibitor, tautomycin, to stabilize xMre11-PPP. Following incubation, 1 ul of extract was analyzed for xFANCD2 and xMre11 by immunoblot. DNA-free extract was used as a size control for xFANCD2-S and xMre11 (lane 1). FIG. 13D is a digital image of an immunoblot showing Xenopus egg cell free extracts that were incubated either with bead-coupled anti-xATRIP antibody or with bead-coupled pre-immune serum and incubated with 200 ng/ul circular plasmid dsDNA. Aliquots were taken at different time points and assayed for xFANCD2 by immunoblot. 1 ul of DNA-free extract was used as a size control for xFANCD2-S (lane 5). […] Xenopus egg cell free extracts containing 200 ng/ul of circular plasmid dsDNA were incubated with etoposide (30 uM, lane 2; 60 uM, lane 3) or ICRF-193 (150 uM, lane 4; 300 uM, lane 5). Xenopus egg cell free extracts containing 200 ng/ul of circular plasmid dsDNA but not topoisomerase IIα inhibitor were used as positive control and DNA-free extracts were used as negative control for induction of xFANCD2-L. […]"}, "[1]": {"conditions": "high concentration of circular plasmid DNA (100 ng/ul), caffeine or geminin added"}}, "note": "Entries after “also recorded” stand apart in the source; their conditions may differ.", "data": [{"compound": "CO[C@@]12[C@H](COC(N)=O)C3=C(C(=O)C(C)=C(N)C3=O)N1C[C@@H]1N[C@@H]12", "note": "[MMC, mitomycin C]", "values": [{"measurement": "chromatin binding of xFA proteins (xFANCA, xFANCF, xFANCD2)", "setting": "xFANCA, xFANCF, xFANCD2", "result": "increased"}, {"measurement": "replication (incorporation of radiolabeled nucleotides into nascent DNA)", "setting": "DNA replication; 60 minutes after addition of sperm chromatin (FIG. 3A top right)", "result": "reduced"}, {"measurement": "DNA replication", "setting": "DNA replication; MMC 150 μM", "result": "significantly blocked"}, {"measurement": "DNA replication", "setting": "DNA replication; lower MMC concentrations (50 μM, 5 μM)", "result": "less inhibited"}]}, {"compound": "C[C@@]12C(=O)OC(=O)[C@]1(C)[C@H]1CC[C@@H]2O1", "note": "[NP-B11, cantharidin]", "values": [{"measurement": "shift corresponding to xFANCM phosphorylation upon addition of DNA", "setting": "xFANCM", "result": "stimulates the post-translational modification of xFANCM or inhibits the dephosphorylation of xFANCM; also recorded: strongly stimulated"}]}, {"compound": "C[C@@]1(CO)[C@H](O)CC[C@@]2(C)[C@H]1CC[C@H]1C[C@@H]3C[C@@]12CC[C@]3(O)CO", "note": "[aphidicolin]", "values": [{"measurement": "chromatin binding of xFA proteins (xFANCA, xFANCF, xFANCD2)", "setting": "xFANCA, xFANCF, xFANCD2", "result": "increased chromatin association"}]}, {"compound": "Cn1c(=O)c2c(ncn2C)n(C)c1=O", "note": "[caffeine]", "values": [{"measurement": "induction of Mre11-PPP in response to dsDNA fragments", "setting": "xMre11; dsDNA fragments generated by HaeIII-digest", "result": "inhibited"}, {"measurement": "induction of xMre11-PPP by circular plasmid DNA", "setting": "xMre11; [1]", "result": "inhibited"}, {"measurement": "MMC-induced recruitment of xFA proteins to chromatin", "setting": "xFANCA, xFANCF, xFANCD2; MMC-treated replicating extracts plus caffeine", "result": "reversed"}, {"measurement": "rescue of MMC-blocked replication", "setting": "DNA replication; MMC 150 μM plus caffeine", "result": "could not be rescued"}, {"measurement": "rescue of MMC-reduced replication", "setting": "DNA replication; MMC-treated extracts plus caffeine (FIG. 3A top right)", "result": "rescued"}, {"measurement": "rescue of MMC-inhibited replication", "setting": "DNA replication; lower MMC concentration (50 μM) plus caffeine", "result": "could be rescued"}, {"measurement": "activation of xFANCD2-L by circular plasmid DNA", "setting": "xFANCD2; [1]", "result": "not significantly affected"}]}, {"compound": "COc1cc([C@@H]2c3cc4c(cc3[C@@H](O[C@@H]3O[C@@H]5CO[C@@H](C)O[C@H]5[C@H](O)[C@H]3O)[C@H]3COC(=O)[C@H]23)OCO4)cc(OC)c1O", "note": "[etoposide]", "values": [{"measurement": "induction of xFANCD2-L in the presence of circular plasmid DNA", "setting": "xFANCD2", "result": "significantly blocked"}]}, {"compound": "ICRF-193", "values": [{"measurement": "induction of xFANCD2-L in the presence of circular plasmid DNA", "setting": "xFANCD2", "result": "significantly blocked"}]}]}
